± gives the expanded uncertainty stated by the source.
Conditions: Liquid, Pulse-echo method

FC(F)(F)C1(F)OC1(F)F (stereo unspecified) [2,2,3-trifluoro-3-(trifluoromethyl)oxirane]
speed of sound (253.15 K, 2510 kPa): 571.2 ± 1.8 m/s | speed of sound (253.15 K, 10040 kPa): 623.9 ± 1.8 m/s | speed of sound (253.15 K, 25020 kPa): 708 ± 1.7 m/s | speed of sound (253.15 K, 50030 kPa): 816.7 ± 1.7 m/s | speed of sound (253.15 K, 75010 kPa): 903.6 ± 1.9 m/s | speed of sound (253.15 K, 100040 kPa): 977.8 ± 2.1 m/s | speed of sound (253.15 K, 125040 kPa): 1043.1 ± 2.1 m/s | speed of sound (253.15 K, 150010 kPa): 1101.9 ± 2.3 m/s | speed of sound (253.15 K, 175030 kPa): 1155.8 ± 2.5 m/s | speed of sound (253.15 K, 200030 kPa): 1205.6 ± 2.5 m/s | speed of sound (253.15 K, 250060 kPa): 1295.5 ± 2.7 m/s | speed of sound (253.15 K, 300100 kPa): 1376.5 ± 2.9 m/s | speed of sound (253.15 K, 350000 kPa): 1449.2 ± 2.9 m/s | speed of sound (253.15 K, 400120 kPa): 1516.7 ± 3.1 m/s | speed of sound (283.15 K, 2500 kPa): 449.4 ± 1.9 m/s | speed of sound (283.15 K, 9990 kPa): 517.5 ± 1.8 m/s | speed of sound (283.15 K, 25000 kPa): 617.4 ± 1.7 m/s | speed of sound (283.15 K, 49990 kPa): 737.8 ± 1.7 m/s | speed of sound (283.15 K, 74990 kPa): 831.4 ± 1.7 m/s | speed of sound (283.15 K, 100050 kPa): 910 ± 1.9 m/s | speed of sound (283.15 K, 125050 kPa): 978.4 ± 2.1 m/s | speed of sound (283.15 K, 150010 kPa): 1039.3 ± 2.1 m/s | speed of sound (283.15 K, 175090 kPa): 1095.2 ± 2.3 m/s | speed of sound (283.15 K, 200080 kPa): 1146.8 ± 2.3 m/s | speed of sound (283.15 K, 250010 kPa): 1239.4 ± 2.5 m/s | speed of sound (283.15 K, 300020 kPa): 1321.5 ± 2.7 m/s | speed of sound (283.15 K, 350020 kPa): 1396.5 ± 2.9 m/s | speed of sound (283.15 K, 400120 kPa): 1465.2 ± 3.1 m/s | speed of sound (313.15 K, 2500 kPa): 326.6 ± 1.3 m/s | speed of sound (313.15 K, 10010 kPa): 420.6 ± 1.9 m/s | speed of sound (313.15 K, 25030 kPa): 538.8 ± 1.7 m/s | speed of sound (313.15 K, 50010 kPa): 670.9 ± 1.7 m/s | speed of sound (313.15 K, 75040 kPa): 769.9 ± 1.7 m/s | speed of sound (313.15 K, 100050 kPa): 852 ± 1.9 m/s | speed of sound (313.15 K, 125040 kPa): 922.8 ± 1.9 m/s | speed of sound (313.15 K, 150070 kPa): 986.2 ± 2.1 m/s | speed of sound (313.15 K, 175020 kPa): 1043.4 ± 2.1 m/s | speed of sound (313.15 K, 200020 kPa): 1095.8 ± 2.3 m/s | speed of sound (313.15 K, 250020 kPa): 1190.7 ± 2.5 m/s | speed of sound (313.15 K, 300010 kPa): 1274.7 ± 2.7 m/s | speed of sound (313.15 K, 350030 kPa): 1350.5 ± 2.9 m/s | speed of sound (313.15 K, 400060 kPa): 1420.2 ± 3 m/s | speed of sound (343.15 K, 10040 kPa): 332.6 ± 1 m/s | speed of sound (343.15 K, 25050 kPa): 471.3 ± 1.8 m/s | speed of sound (343.15 K, 50030 kPa): 614.1 ± 1.7 m/s | speed of sound (343.15 K, 75030 kPa): 718 ± 1.7 m/s | speed of sound (343.15 K, 100050 kPa): 803 ± 1.7 m/s | speed of sound (343.15 K, 125030 kPa): 875.8 ± 1.9 m/s | speed of sound (343.15 K, 150030 kPa): 940.5 ± 1.9 m/s | speed of sound (343.15 K, 175010 kPa): 999.1 ± 2.1 m/s | speed of sound (343.15 K, 200060 kPa): 1052.9 ± 2.3 m/s | speed of sound (343.15 K, 250050 kPa): 1149.1 ± 2.3 m/s | speed of sound (343.15 K, 299960 kPa): 1234.4 ± 2.5 m/s | speed of sound (343.15 K, 350090 kPa): 1311.5 ± 2.7 m/s | speed of sound (343.15 K, 400040 kPa): 1382.2 ± 3 m/s | speed of sound (373.15 K, 10010 kPa): 255 ± 1.1 m/s | speed of sound (373.15 K, 24970 kPa): 413.4 ± 0.8 m/s | speed of sound (373.15 K, 50060 kPa): 565.5 ± 1.7 m/s | speed of sound (373.15 K, 75000 kPa): 673 ± 1.7 m/s | speed of sound (373.15 K, 100040 kPa): 760 ± 1.7 m/s | speed of sound (373.15 K, 125040 kPa): 834.6 ± 1.7 m/s | speed of sound (373.15 K, 150040 kPa): 900.3 ± 1.9 m/s | speed of sound (373.15 K, 175000 kPa): 959.8 ± 2.1 m/s | speed of sound (373.15 K, 200070 kPa): 1014.2 ± 2.1 m/s | speed of sound (373.15 K, 249990 kPa): 1111.6 ± 2.3 m/s | speed of sound (373.15 K, 300030 kPa): 1198 ± 2.5 m/s | speed of sound (373.15 K, 350040 kPa): 1275.4 ± 2.7 m/s | speed of sound (373.15 K, 400010 kPa): 1346.4 ± 2.8 m/s | speed of sound (403.15 K, 20010 kPa): 322.5 ± 1 m/s | speed of sound (403.15 K, 25020 kPa): 367.5 ± 1 m/s | speed of sound (403.15 K, 50020 kPa): 525.9 ± 1.7 m/s | speed of sound (403.15 K, 75050 kPa): 636.7 ± 1.7 m/s | speed of sound (403.15 K, 100040 kPa): 725.7 ± 1.7 m/s | speed of sound (403.15 K, 125010 kPa): 801.5 ± 1.7 m/s | speed of sound (403.15 K, 150040 kPa): 868.4 ± 1.9 m/s | speed of sound (403.15 K, 175040 kPa): 928.7 ± 1.9 m/s | speed of sound (403.15 K, 200050 kPa): 983.8 ± 2.1 m/s | speed of sound (403.15 K, 250040 kPa): 1082.6 ± 2.3 m/s | speed of sound (403.15 K, 299980 kPa): 1169.6 ± 2.5 m/s | speed of sound (403.15 K, 350040 kPa): 1247.9 ± 2.5 m/s | speed of sound (403.15 K, 399990 kPa): 1319.9 ± 2.8 m/s

Source: the NIST ThermoML archive (doi:10.1021/je300652k)
